Reference: patent US9757317B2, “Cosmetic compositions and methods for inhibiting melanin synthesis” (The Procter & Gamble Company, priority 2014, dated 2017)
Where a name gives a salt, the structure may show the parent alone.

Tested on: B16-F1 mouse melanoma cells
Experiment: Melanin Synthesis Assay
Assay type: cell-based
Procedure: A B16-F1 mouse melanoma cell line may be employed as an assay to measure melanin synthesis. The B16-F1 cells may be obtained from American Tissue Culture Collection, Virginia, USA. The cell culture medium that may be used in the assay may comprise 500 mL of Dulbecco's Modified Eagle's Medium (DMEM), 50 mL Fetal Bovine Serum (FBS), and 5 mL of penicillin-streptomycin liquid. B16-F1 cells that are cultured in this medium and grown to greater than 90% confluency synthesize melanin. While not intending to be bound by any theory, it is hypothesized that melanin synthesis is stimulated by the culture medium and/or stress induced by growth to a high confluency. The DMEM and FBS can be obtained from American Tissue Culture Collection and the penicillin-streptomycin liquid can be obtained from Invitrogen, Inc., California, USA. Equipment used in the assay include a CO2 incubator, such as a Form a Series Model 3110 by Therma Scientific, Massachusetts, USA; a hemocytometer, such as a Bright Line model by Hauser Scientific, Pennsylvania, USA; and a UV-Visible Spectrum Plate Reader, such as a SpectraMax250 from Molecular Devices, California, USA. The assay steps may include:
Day 0—Cell Growth: Warm the cell culture medium to 37° C. and place 29 mL into a T-150 flask. Add approximately 1×10^6 of B16-F1 passage 1 mouse cells to the T-150 flask and incubate for 3 days at 37° C., 5% CO2, 90% relative humidity, until ˜80% confluency;
Day 3—Initiate a 96 Well Plate: At day 3, trypsinize the cells from the T-150 flask and determine the concentration of cells using a hemocytometer. Initiate a 96 well plate with 2,500 cells per well in 100 microliters of cell culture medium. Incubate the plate at 37° C., 5% CO2, 90% relative humidity for about 2 days until at least 20% to 40% confluency;
Day 5—Decant the cell culture medium from the plate and replace with fresh culture medium (100 uL per well). Add 1 microliter of [test compound] diluted in a [water or DSMO] solvent. Multiple dilution ratios may be tested in order to generate a dose response curve, wherein preferably three wells are treated with each dilution ratio. Controls comprise wells having the cell culture medium, B16-F1 cells, and the solvent (control #1); wells comprising the cell culture medium and the solvent (control #2); and optionally wells comprising the cell culture medium, solvent and [test compound] when necessary to control for the [test compound] background color (control #3);
Day 7—Measure Melanin Production: Cells should have a confluency greater than ˜90%. […] Add 100 microliters of a 0.75% sodium hydroxide solution to each well. Read the 96 well plate using the UV-Vis Plate Reader at 410 nm to optically measure the amount of melanin produced between wells that are treated with [test compound] and control wells that are not treated with a test compound. Wells in which melanin is produced typically appear brownish in color. Wells in which little melanin is produced typically appear clear to light purple in color. Percentage of melanin synthesis inhibition is calculated by the following equation: […]
Where OD410 is the Optical Density at 410 nm as measured by the UV-Vis Spectrum Plate Reader.
When Control #3 is used, the formula for percentage melanin synthesis inhibition is: […]
Using generally the assay outlined above, melanin synthesis in treated B16-F1 cells was inhibited as compared to control cells as shown in Table 1.

[1] = test material (0.002 to 0.5%) combined with Bis/UP/Nia
[2] = test material (0.002 to 0.5%) combined with Bis/HD/Nia

| SMILES | Average Melanin % Inhibition [1] | Average Melanin % Inhibition [2] | further results |
| --- | --- | --- | --- |
| CCCCC(CC)COC(=O)CCCCC(=O)OCC(CC)CCCC (stereo not shown) [Bis (2-ethylhexyl) Adipate, Bis (2-ethylhexyl) adipate] | 42% | – | – |
| CCCCCCCCCCCCCCCCCC(=O)OCC(O)CO (racemic) [1-Stearoyl rac-Glycerol, 1-Stearoyl-rac-glycerol] | – | – | Average Melanin % Inhibition (test material (0.002 to 0.5%) combined with Bis/HD/UP/Nia): 38% |
| CCCCCCCCCCCCCCCCCCO [Stearyl Alcohol, Stearyl alcohol] | 73% | 60% | – |
| CCCCCCCCCCCCCCCCCCOCC(O)CO (stereo not shown) [Sample 8, batyl alcohol] | – | – | Average Melanin % Inhibition (Table 2, 0.03% Bat, 0.003% Bis, 0.0005% HD, 0.0001% UP, 0.0005% Nia where included): 7% |
| CCCCCCCCCCCCCCCC(=O)OCC [Ethyl Palmitate, Ethyl palmitate] | 84% | 82% | – |
| CCCCCCCCCCC(O)CCCC (stereo not shown) [5-Pentadecanol] | – | 46% | – |
| CCCCC(CC)COC(=O)/C=C\C(=O)OCC(CC)CCCC (stereo not shown) [Bis (2-ethylhexyl) Maleate, Bis (2-ethylhexyl) maleate] | 45% | 32% | – |
| CCCCC(CC)COC(=O)CCCCCCCCC(=O)OCC(CC)CCCC (stereo not shown) [Bis (2-ethylhexyl) Sebacate, Bis (2-ethylhexyl) sebacate] | 88% | 79% | – |
| CC(C)=CCC[C@](C)(O)[C@@H]1CC=C(C)CC1 [Sample 1, bisabolol] | – | – | Average Melanin % Inhibition (Table 1, B16-F1 cells, 0.1% Bis, 0.00056% HD, 0.00011% UP, 0.00056% Nia where included): 2.2% |
